From patent EP4803094A2, “GLP-1/GIP DUAL, GLP-1/GCG DUAL AND GLP-1/GIP/GCG TRIPLE RECEPTOR AGONISTS” (Sun Pharmaceutical Industries Limited, priority 2023, dated 2024)
Marks after values point to notes of the source that are not given here.

Experiments:
Format in all cases: in vivo
[1] = system: Type 2 diabetes mouse (db/db) model; assay: Efficacy study in db/db mice (blood glucose, body weight, food consumption); conditions: 10 nM/kg s.c. single dose, mean (n=6)
Experimental: The effect of the compounds as described herein on blood glucose, food intake and body weight were studied in mice. This study was performed in Type 2 diabetes mouse (db/db) model. The animals were divided into 9 treatment groups (n=6): a diabetic control group, Compound 12 (10 nM/kg), Compound 13 (10 nM/kg), Compound 26 (10 nM/kg), Compound 14 (10 nM/kg), Compound 15 (10 nM/kg), Compound 21 (10 nM/kg), Compound 22 (10 nM/kg), and Tirzepatide (10 nM/kg). Baseline blood glucose was measured from all the animals. All the animals were administered with test item subcutaneously. Blood glucose was measured at 4 hr, 8 hr, 12 hr, 24 hr, 48 hr, 72 hr, and 96 hr post treatment. Delta blood glucose (mM) was calculated. Body weight changes and cumulative food consumption were measured at 48 hr and 96 hr post treatment. Table 3. Effect on Blood Glucose

Rats [2] = assay: Oral Glucose Tolerance Test (OGTT) in rats, single injection (blood glucose AUC, body weight, food consumption); conditions: 30 nM/kg s.c., mean (n=4); for Body weight change (%): 24 hr
Rats [3] = assay: as above; conditions: for Food Consumption (g) / Body weight change (%): 30 nM/kg s.c.; for Food Consumption (g): 0-12 hr; for Food Consumption (g) / Body weight change (%) / Blood Glucose AUC(0-120min) Mean: mean (n=4); for Blood Glucose AUC(0-120min) Mean: OGTT 2 g/kg glucose orally, 24 hr post subcutaneous injection of 30 nM/kg; for % Change in Blood glucose AUC(0-120min) vs placebo control: OGTT 24 hr post subcutaneous injection of 30 nM/kg
Experimental: Animals were divided into 6 groups (n=4/group): a placebo control group, Compound 17, (30 nM/kg), Compound 18 (30 nM/kg), Compound 19 (30 nM/kg), Compound 20 (30 nM/kg), and Retatrutide (30 nM/kg). Animals were fasted for 12 hours before initiation of OGTT. After 24 hours of subcutaneous injection of tests or Retatrutide, blood glucose was measured with blood glucometer (time 0 measurement). All the animals were given 2 g/kg of glucose solution orally. Blood glucose was measured at 10, 20, 40, 60, 90, and 120 min following glucose challenge. Body weight and food consumption were recorded at 12 hr, 48 hr and 72 hr.

| SMILES | Cumulative Food Consumption (g) 0-48 hr [1] | Cumulative Food Consumption (g) 0-96 hr [1] | Delta Blood Glucose ([1]; 4 hr post treatment) [mM] | Delta Blood Glucose (mM) ([1]; 24 hr post treatment) | Delta Blood Glucose (mM) ([1]; 48 hr post treatment) | Body Weight Change (%) 48 hr [1] | Delta Blood Glucose ([1]; 96 hr post treatment) [mM] | Body Weight Change (%) 96 hr [1] | Food Consumption (g) (Rats [2]; 24-48 hr) | Food Consumption (g) (Rats [2]; 24-72 hr) | Body weight change (%) (Rats [2]) | Food Consumption (g) (Rats [3]) | Body weight change (%) (Rats [3]; 48 hr) | Body weight change (%) (Rats [3]; 72 hr) | Blood Glucose AUC(0-120min) Mean (Rats [3]) | % Change in Blood glucose AUC(0-120min) vs placebo control (Rats [3]) [%] | further results |
| --- | --- | --- | --- | --- | --- | --- | --- | --- | --- | --- | --- | --- | --- | --- | --- | --- | --- |
| CC[C@H](C)[C@H](NC(=O)[C@H](Cc1ccccc1)NC(=O)[C@H](C)NC(=O)C(C)(C)NC(=O)[C@H](CCC(N)=O)NC(=O)[C@H](C)NC(=O)[C@H](CCCCNC(=O)COCCOCCNC(=O)C(C)(C)NC(=O)CC[C@H](NC(=O)CCCCCCCCCCCCCCCCC(=O)O)C(=O)O)NC(=O)[C@H](CCCCN)NC(=O)[C@H](CC(=O)O)NC(=O)[C@H](CC(C)C)NC(=O)[C@](C)(CC(C)C)NC(=O)[C@@H](NC(=O)[C@H](CO)NC(=O)[C@H](Cc1ccc(O)cc1)NC(=O)[C@H](CC(=O)O)NC(=O)[C@H](CO)NC(=O)[C@@H](NC(=O)[C@H](Cc1ccccc1)NC(=O)[C@@H](NC(=O)CNC(=O)[C@H](CCC(N)=O)NC(=O)C(C)(C)NC(=O)[C@@H](N)Cc1ccc(O)cc1)[C@@H](C)O)[C@@H](C)O)[C@@H](C)CC)C(=O)N[C@@H](CCC(=O)O)C(=O)N[C@@H](Cc1ccc(O)cc1)C(=O)N[C@@H](CC(C)C)C(=O)N[C@@H](CC(C)C)C(=O)N[C@@H](CCC(=O)O)C(=O)NCC(=O)NCC(=O)N1CCC[C@H]1C(=O)N[C@@H](CO)C(=O)N[C@@H](CO)C(=O)NCC(=O)N[C@@H](C)C(=O)N1CCC[C@H]1C(=O)N1CCC[C@H]1C(=O)N1CCC[C@H]1C(=O)N[C@@H](CO)C(N)=O [Compound 12] | 3.1*** g | 10.9*** g | -3.2 | -13.7*** mM | -11.4*** mM | -8.0*** % | -6.4 | -3.7*** % | – | – | – | – | – | – | – | – | Delta Blood Glucose (mM) ([1]; 8 hr post treatment): -8.9* mM; Delta Blood Glucose (mM) ([1]; 12 hr post treatment): -13.2*** mM; Delta Blood Glucose (mM) ([1]; 72 hr post treatment): -9.2** mM |
| CCCC[C@H](NC(=O)[C@@H](NC(=O)[C@H](CO)NC(=O)[C@H](Cc1ccc(O)cc1)NC(=O)[C@H](CC(=O)O)NC(=O)[C@H](CO)NC(=O)[C@@H](NC(=O)[C@H](Cc1ccccc1)NC(=O)[C@@H](NC(=O)CNC(=O)[C@H](CCC(N)=O)NC(=O)C(C)(C)NC(=O)[C@@H](N)Cc1ccc(O)cc1)[C@@H](C)O)[C@@H](C)O)[C@@H](C)CC)C(=O)N[C@@H](CC(C)C)C(=O)N[C@@H](CC(=O)O)C(=O)N[C@@H](CCCCN)C(=O)N[C@@H](CCCCNC(=O)COCCOCCNC(=O)C(C)(C)NC(=O)CC[C@H](NC(=O)CCCCCCCCCCCCCCCCCCC(=O)O)C(=O)O)C(=O)N[C@@H](C)C(=O)N[C@@H](CCC(N)=O)C(=O)NC(C)(C)C(=O)N[C@@H](C)C(=O)N[C@@H](Cc1ccccc1)C(=O)N[C@H](C(=O)N[C@@H](CCC(=O)O)C(=O)N[C@@H](Cc1ccc(O)cc1)C(=O)N[C@@H](CC(C)C)C(=O)N[C@@H](CC(C)C)C(=O)N[C@@H](CCC(=O)O)C(=O)NCC(=O)NCC(=O)N1CCC[C@H]1C(=O)N[C@@H](CO)C(=O)N[C@@H](CO)C(=O)NCC(=O)N[C@@H](C)C(=O)N1CCC[C@H]1C(=O)N1CCC[C@H]1C(=O)N1CCC[C@H]1C(=O)N[C@@H](CO)C(N)=O)[C@@H](C)CC [Compound 14] | 3.0*** g | 8.3*** g | -3.8 | -9.2** mM | -9.3* mM | -8.8*** % | -2.6 | -7.1*** % | – | – | – | – | – | – | – | – | Delta Blood Glucose ([1]; 8 hr post treatment): -3.1 mM; Delta Blood Glucose ([1]; 12 hr post treatment): -6.2 mM; Delta Blood Glucose ([1]; 72 hr post treatment): -7 mM |
| CCC[C@H](NC(=O)[C@@H](NC(=O)[C@H](CO)NC(=O)[C@H](Cc1ccc(O)cc1)NC(=O)[C@H](CC(=O)O)NC(=O)[C@H](CO)NC(=O)[C@@H](NC(=O)[C@H](Cc1ccccc1)NC(=O)[C@@H](NC(=O)CNC(=O)[C@H](CCC(N)=O)NC(=O)C(C)(C)NC(=O)[C@@H](N)Cc1ccc(O)cc1)[C@@H](C)O)[C@@H](C)O)[C@@H](C)CC)C(=O)N[C@@H](CC(C)C)C(=O)N[C@@H](CC(=O)O)C(=O)N[C@@H](CCCCN)C(=O)N[C@@H](CCCCNC(=O)COCCOCCNC(=O)COCCOCCNC(=O)CC[C@H](NC(=O)CCCCCCCCCCCCCCCCCCC(=O)O)C(=O)O)C(=O)N[C@@H](C)C(=O)N[C@@H](CCC(N)=O)C(=O)NC(C)(C)C(=O)N[C@@H](C)C(=O)N[C@@H](Cc1ccccc1)C(=O)N[C@H](C(=O)N[C@@H](CCC(=O)O)C(=O)N[C@@H](Cc1ccc(O)cc1)C(=O)N[C@@H](CC(C)C)C(=O)N[C@@H](CC(C)C)C(=O)N[C@@H](CCC(=O)O)C(=O)NCC(=O)NCC(=O)N1CCC[C@H]1C(=O)N[C@@H](CO)C(=O)N[C@@H](CO)C(=O)NCC(=O)N[C@@H](C)C(=O)N1CCC[C@H]1C(=O)N1CCC[C@H]1C(=O)N1CCC[C@H]1C(=O)N[C@@H](CO)C(N)=O)[C@@H](C)CC [Compound 18] | – | – | – | – | – | – | – | – | 5.8*** g | 16.8*** g | -6.5*** % | 3.0*** g | -4.6*** % | -2.6*** % | 4176.3*** | -56.82 | – |
| CC[C@H](C)[C@H](NC(=O)[C@H](Cc1ccccc1)NC(=O)[C@H](C)NC(=O)C(C)(C)NC(=O)[C@H](CCC(N)=O)NC(=O)[C@H](C)NC(=O)[C@H](CCCCNC(=O)COCCOCCNC(=O)CC[C@H](NC(=O)CCCCCCCCCCCCCCCCCCC(=O)O)C(=O)O)NC(=O)[C@H](CCCCN)NC(=O)[C@H](CC(=O)O)NC(=O)[C@H](CC(C)C)NC(=O)[C@](C)(CC(C)C)NC(=O)[C@@H](NC(=O)[C@H](CO)NC(=O)[C@H](Cc1ccc(O)cc1)NC(=O)[C@H](CC(=O)O)NC(=O)[C@H](CO)NC(=O)[C@@H](NC(=O)[C@H](Cc1ccccc1)NC(=O)[C@@H](NC(=O)CNC(=O)[C@H](CCC(N)=O)NC(=O)C(C)(C)NC(=O)[C@@H](N)Cc1ccc(O)cc1)[C@@H](C)O)[C@@H](C)O)[C@@H](C)CC)C(=O)N[C@@H](CCC(=O)O)C(=O)N[C@@H](Cc1ccc(O)cc1)C(=O)N[C@@H](CC(C)C)C(=O)N[C@@H](CC(C)C)C(=O)N[C@@H](CCC(=O)O)C(=O)NCC(=O)NCC(=O)N1CCC[C@H]1C(=O)N[C@@H](CO)C(=O)N[C@@H](CO)C(=O)NCC(=O)N[C@@H](C)C(=O)N1CCC[C@H]1C(=O)N1CCC[C@H]1C(=O)N1CCC[C@H]1C(=O)N[C@@H](CO)C(N)=O [Retatrutide, reference compound] | – | – | – | – | – | – | – | – | 8.6*** g | 23.8*** g | -6.0*** % | 0.7*** g | -4.5*** % | -2.5*** % | 3792.5*** | -60.79 | – |
